Measured values taken from the NIST ThermoML archive (doi:10.1007/s10765-005-5567-5).

Assay: mn = molality of the nth substance listed, in mol/kg
Settings: Liquid; for viscosity: Capillary tube (Ostwald / Ubbelohde) method; for thermal conductivity: Coaxial cylinder method

O=S(=O)([O-])[O-].[K+].[K+] [potassium sulfate] + O
Settings | thermal conductivity, 10000 kPa [W/m/K] | thermal conductivity, 30000 kPa [W/m/K] | viscosity, 10 kPa [mPa·s] | viscosity, 20 kPa [mPa·s] | viscosity, 30 kPa [mPa·s]
397.25 K, m1 = 0.305 | – | – | – | 0.2531 | 0.2565
398.55 K, m1 = 0.0658 | – | – | 0.2289 | 0.2321 | 0.236
422.05 K, m1 = 0.407 | – | – | 0.2131 | 0.2154 | 0.2189
423 K, m1 = 0.499 | 0.678 | 0.69 | – | – | –
423.3 K, m1 = 0.782 | 0.671 | 0.684 | – | – | –
423.55 K, m1 = 0.305 | – | – | 0.204 | 0.2068 | 0.2096
423.6 K, m1 = 0.239 | 0.683 | 0.696 | – | – | –
423.85 K, m1 = 0.0658 | – | – | 0.1881 | 0.1926 | 0.196
425.45 K, m1 = 0.2055 | – | – | 0.1946 | 0.1974 | 0.2
446.85 K, m1 = 0.407 | – | – | 0.1811 | 0.184 | 0.1867
447.35 K, m1 = 0.0658 | – | – | 0.1613 | 0.1645 | 0.166
448.1 K, m1 = 0.782 | 0.665 | 0.681 | – | – | –
448.35 K, m1 = 0.2055 | – | – | 0.1679 | 0.1705 | 0.1732
448.55 K, m1 = 0.305 | – | – | 0.1735 | 0.1769 | 0.179
448.7 K, m1 = 0.239 | 0.678 | 0.691 | – | – | –
449.8 K, m1 = 0.499 | 0.672 | 0.686 | – | – | –
470.75 K, m1 = 0.407 | – | – | 0.1586 | 0.1605 | 0.1641
472.05 K, m1 = 0.0658 | – | – | 0.1403 | 0.1436 | 0.146
472.9 K, m1 = 0.499 | 0.659 | 0.676 | – | – | –
473.4 K, m1 = 0.239 | 0.665 | 0.681 | – | – | –
473.8 K, m1 = 0.782 | 0.652 | 0.671 | – | – | –
475.85 K, m1 = 0.305 | – | – | 0.1492 | 0.1521 | 0.1545
477.45 K, m1 = 0.2055 | – | – | 0.143 | 0.1456 | 0.1482
496.35 K, m1 = 0.0658 | – | – | 0.1244 | 0.1276 | 0.13
497.45 K, m1 = 0.2055 | – | – | 0.1294 | 0.1322 | 0.1348
498.3 K, m1 = 0.499 | 0.639 | 0.657 | – | – | –
498.5 K, m1 = 0.239 | 0.644 | 0.664 | – | – | –
498.55 K, m1 = 0.407 | – | – | 0.1388 | 0.1409 | 0.1444
498.6 K, m1 = 0.782 | 0.632 | 0.65 | – | – | –
499.95 K, m1 = 0.305 | – | – | 0.1332 | 0.1369 | 0.14
523.05 K, m1 = 0.2055 | – | – | 0.1162 | 0.1191 | 0.1219
523.2 K, m1 = 0.499 | 0.61 | 0.63 | – | – | –
523.3 K, m1 = 0.239 | 0.617 | 0.637 | – | – | –
523.85 K, m1 = 0.407 | – | – | 0.1248 | 0.1286 | 0.1307
523.9 K, m1 = 0.782 | 0.602 | 0.623 | – | – | –
524.45 K, m1 = 0.0658 | – | – | 0.1097 | 0.1135 | 0.116
527.35 K, m1 = 0.305 | – | – | 0.1185 | 0.1216 | 0.1243
541.55 K, m1 = 0.407 | – | – | 0.1171 | 0.12 | 0.1236
545.05 K, m1 = 0.0658 | – | – | 0.1008 | 0.1045 | 0.1072
547.9 K, m1 = 0.239 | 0.584 | 0.61 | – | – | –
548.2 K, m1 = 0.499 | 0.577 | 0.604 | – | – | –
548.45 K, m1 = 0.305 | – | – | 0.1087 | 0.1119 | 0.115
548.5 K, m1 = 0.782 | 0.57 | 0.598 | – | – | –
550.55 K, m1 = 0.2055 | – | – | 0.1039 | 0.1072 | 0.1105
571.55 K, m1 = 0.0658 | – | – | 0.0902 | 0.094 | 0.0972
573.2 K, m1 = 0.499 | 0.534 | 0.568 | – | – | –
573.2 K, m1 = 0.782 | 0.525 | 0.56 | – | – | –
573.35 K, m1 = 0.305 | – | – | 0.0976 | 0.1016 | 0.1035
573.8 K, m1 = 0.239 | 0.54 | 0.574 | – | – | –
574.35 K, m1 = 0.2055 | – | – | 0.094 | 0.0973 | 0.1014
575.25 K, m1 = 0.407 | – | – | 0.1021 | 0.1067 | 0.1102
